Measured values taken from patent publication US20210284638A1 (Saint Louis University, priority 2018, published 2021).
pIC50: −log10 of the molar value. Where a name gives a salt, the structure may show the parent alone.

What was measured:
Type in all cases: binding
[1] = molecular target: T1, Recombinant human integrin αVβ5 (Homo sapiens, UniProt P06756+P18084); test: Solid Phase Receptor Assay (SPRA) for αVβ5 function; details: plate-bound human vitronectin
T1 construct: purchased R&D Systems 2528-AV
T1 sequence (P06756 31-992 limits assumed): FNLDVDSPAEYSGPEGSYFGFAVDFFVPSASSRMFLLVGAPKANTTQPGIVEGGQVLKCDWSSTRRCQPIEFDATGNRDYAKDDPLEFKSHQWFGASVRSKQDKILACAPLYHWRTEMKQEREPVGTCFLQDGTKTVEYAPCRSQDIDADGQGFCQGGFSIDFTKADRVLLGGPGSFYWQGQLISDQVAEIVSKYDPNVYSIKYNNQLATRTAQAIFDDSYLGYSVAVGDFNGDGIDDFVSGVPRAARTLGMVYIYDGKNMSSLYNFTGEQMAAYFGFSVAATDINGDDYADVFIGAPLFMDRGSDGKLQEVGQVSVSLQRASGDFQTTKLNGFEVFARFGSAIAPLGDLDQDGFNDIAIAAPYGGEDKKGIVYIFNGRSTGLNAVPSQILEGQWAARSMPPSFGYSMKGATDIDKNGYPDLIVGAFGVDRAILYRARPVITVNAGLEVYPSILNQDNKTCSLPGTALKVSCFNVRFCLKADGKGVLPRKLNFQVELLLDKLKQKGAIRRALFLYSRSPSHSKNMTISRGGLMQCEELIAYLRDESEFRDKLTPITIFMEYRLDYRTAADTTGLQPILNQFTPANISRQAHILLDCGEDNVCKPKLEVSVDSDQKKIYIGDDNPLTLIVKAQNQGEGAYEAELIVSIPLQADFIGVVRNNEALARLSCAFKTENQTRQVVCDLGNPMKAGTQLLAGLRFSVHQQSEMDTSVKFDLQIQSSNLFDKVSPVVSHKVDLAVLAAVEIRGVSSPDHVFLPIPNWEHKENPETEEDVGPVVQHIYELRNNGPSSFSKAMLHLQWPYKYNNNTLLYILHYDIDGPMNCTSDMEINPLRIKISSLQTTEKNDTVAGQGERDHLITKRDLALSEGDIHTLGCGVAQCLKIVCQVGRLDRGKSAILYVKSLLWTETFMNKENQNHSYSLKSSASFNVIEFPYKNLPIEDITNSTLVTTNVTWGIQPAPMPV
T1 sequence (P18084 24-719 limits assumed): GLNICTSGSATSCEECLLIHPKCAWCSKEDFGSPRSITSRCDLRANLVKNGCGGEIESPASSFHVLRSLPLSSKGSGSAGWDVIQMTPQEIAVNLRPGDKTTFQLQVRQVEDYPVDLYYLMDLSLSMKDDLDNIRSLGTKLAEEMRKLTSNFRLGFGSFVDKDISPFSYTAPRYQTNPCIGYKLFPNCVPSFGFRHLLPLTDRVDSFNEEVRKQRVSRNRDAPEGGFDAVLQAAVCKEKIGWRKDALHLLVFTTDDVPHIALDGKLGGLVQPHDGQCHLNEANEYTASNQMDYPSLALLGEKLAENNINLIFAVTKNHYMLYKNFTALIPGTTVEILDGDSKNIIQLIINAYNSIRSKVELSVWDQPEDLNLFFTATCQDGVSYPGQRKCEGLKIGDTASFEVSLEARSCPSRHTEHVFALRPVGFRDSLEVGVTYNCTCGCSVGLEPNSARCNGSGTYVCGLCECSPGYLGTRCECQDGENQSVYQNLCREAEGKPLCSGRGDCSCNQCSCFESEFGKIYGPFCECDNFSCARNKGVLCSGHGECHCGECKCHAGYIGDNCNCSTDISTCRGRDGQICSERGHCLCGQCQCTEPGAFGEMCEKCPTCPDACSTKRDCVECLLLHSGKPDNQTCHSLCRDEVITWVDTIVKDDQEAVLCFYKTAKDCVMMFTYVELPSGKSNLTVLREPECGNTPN
Protocol: D. Solid Phase Receptor Assay (SPRA) for αVβ5 Function
(§1) Wells were washed 3 times with 150 μL TBS+ and then 150 μL of blocking buffer (TBS+ with 1% bovine serum albumin, Sigma A7906) was added. The plate was incubated for 1 hr at 37° C. and then washed 3× with TBS+ buffer. […] Compounds were diluted to 20 μM and then 1 μL was added to each well of the plate according to a standard template with each sample repeated in triplicate. After incubation for two hours at room temperature, the plate was washed 3× with 150 μL of TBS+ buffer. To each well, 50 μl of biotinylated anti-αV antibody (R&D Systems, BAF1219) at 0.5 μg/mL in TBS+/0.1% BSA at 0.5 μg/mL were added and the plate covered and incubated for 1 hr at room temperature. After washing the plate 3× with 150 μL of TBS+ buffer, 50 μL of streptavidin-conjugated horseradish peroxidase (R&D Systems, DY998) diluted in TBS+ blocking buffer were added to the wells and the plate incubated for 20 min at room temperature. The plate was washed 3× with TBS+ buffer followed by 50 μL of TMB substrate (Sigma T4444) added to each well in the dark and the plate incubated for 5 min at room temperature. 25 μL of 1.0 M phosphoric acid was added as a stop solution and the plates were read at 450 nm using a Spectramax plate reader.

[2] = molecular target: T2, Recombinant human integrin αVβ8 (Homo sapiens, UniProt P06756+P26012); test: Solid Phase Receptor Assay for αVβ8 function; details: plate-bound human LAP; read-out: αVβ8 SPRA IC50
T2 construct: purchased R&D Systems 4135-AV
T2 sequence (P06756 31-992 limits assumed): as the sequence (P06756 31-992 limits assumed) above
T2 sequence (P26012 43-684 limits assumed): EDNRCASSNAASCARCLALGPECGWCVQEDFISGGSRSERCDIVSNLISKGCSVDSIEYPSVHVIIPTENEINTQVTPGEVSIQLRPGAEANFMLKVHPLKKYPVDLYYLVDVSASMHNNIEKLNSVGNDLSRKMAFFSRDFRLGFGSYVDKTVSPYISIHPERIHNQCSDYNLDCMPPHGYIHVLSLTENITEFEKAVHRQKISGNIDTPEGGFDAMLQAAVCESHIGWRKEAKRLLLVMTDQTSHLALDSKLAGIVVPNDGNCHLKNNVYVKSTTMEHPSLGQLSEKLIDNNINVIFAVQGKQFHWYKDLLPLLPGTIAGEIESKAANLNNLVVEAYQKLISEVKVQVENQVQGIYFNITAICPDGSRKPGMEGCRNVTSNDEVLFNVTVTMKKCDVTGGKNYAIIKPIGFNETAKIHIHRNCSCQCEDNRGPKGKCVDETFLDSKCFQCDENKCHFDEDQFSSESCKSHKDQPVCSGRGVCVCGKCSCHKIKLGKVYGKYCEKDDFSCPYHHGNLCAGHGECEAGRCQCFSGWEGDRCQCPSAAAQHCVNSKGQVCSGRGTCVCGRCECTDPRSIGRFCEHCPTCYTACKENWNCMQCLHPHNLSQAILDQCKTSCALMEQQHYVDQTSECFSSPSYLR
Protocol: F. Solid Phase Receptor Assay (SFRA) for αVβ8 Function
Wells were washed 3 times with 150 μL TBS+ and then 150 μL of blocking buffer (TBS+ with 1% bovine serum albumin, Sigma A7906) was added. The plate was incubated for 1 hr at 37° C. and then washed 3× with TBS+. […] Compounds were diluted to 20 μM and 1 μL was added to each well of the plate according to a standard template with each sample repeated in triplicate. After incubation for two hours at room temperature, the plate was washed 3× with 150 μL of TBS+. To each well, 50 μL of biotinylated anti-αV antibody (R&D Systems, BAF1219) at 1 μg/mL in TBS+/0.1% BSA were added and the plate was covered and incubated for 1 hr at room temperature. After washing the plate 3× with 150 μL of TBS+ buffer, 50 μL of streptavidin-conjugated horseradish peroxidase (R&D Systems, DY998) diluted in TBS+ blocking buffer were added to the wells and the plate incubated for 20 min at room temperature. The plate was washed 3× with TBS+ followed by 50 μL of TMB substrate (Sigma T4444) added to each well in the dark and the plate incubated for 10 min at room temperature. 25 μL of 1.0 M phosphoric acid was added as a stop solution and the plates were read at 450 nm using a Spectramax plate reader.

[3] = molecular target: T3, Recombinant human integrin αVβ6 (Homo sapiens, UniProt P06756+P18564); test: Solid Phase Receptor Assay (SPRA) for αVβ6 function; details: plate-bound human LAP
T3 construct: purchased R&D Systems 3817-AV
T3 sequence (P06756 31-992 limits assumed): as the sequence (P06756 31-992 limits assumed) above
T3 sequence (P18564 22-707 limits assumed): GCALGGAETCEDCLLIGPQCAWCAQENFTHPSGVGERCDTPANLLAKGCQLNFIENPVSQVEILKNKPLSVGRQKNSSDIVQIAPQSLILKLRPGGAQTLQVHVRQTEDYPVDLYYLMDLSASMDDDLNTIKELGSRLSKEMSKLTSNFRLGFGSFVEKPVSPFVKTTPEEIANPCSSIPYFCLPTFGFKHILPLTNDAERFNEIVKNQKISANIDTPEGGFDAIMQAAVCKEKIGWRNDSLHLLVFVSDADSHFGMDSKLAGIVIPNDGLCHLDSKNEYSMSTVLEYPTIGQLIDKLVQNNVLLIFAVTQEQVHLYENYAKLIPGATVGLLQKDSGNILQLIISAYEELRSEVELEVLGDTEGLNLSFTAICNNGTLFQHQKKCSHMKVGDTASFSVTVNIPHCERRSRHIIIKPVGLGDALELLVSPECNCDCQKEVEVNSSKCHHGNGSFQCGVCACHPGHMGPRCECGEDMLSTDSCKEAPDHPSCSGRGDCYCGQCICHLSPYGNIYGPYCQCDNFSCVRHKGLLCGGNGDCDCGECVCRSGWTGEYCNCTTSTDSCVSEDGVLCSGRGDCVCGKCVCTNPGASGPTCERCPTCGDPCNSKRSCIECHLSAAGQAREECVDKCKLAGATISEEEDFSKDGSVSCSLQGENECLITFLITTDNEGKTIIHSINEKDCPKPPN
Protocol: E. Solid Phase Receptor Assay (SPRA) for αVβ6 Function
as §1, with “150 μL TBS+, and then” for “150 μL TBS+ and then”, “at 37° C., and then” for “at 37° C. and then”, “well, 50 μL of biotinylated” for “well, 50 μl of biotinylated”, “TBS+/0.1% BSA were added” for “TBS+/0.1% BSA at 0.5 μg/mL were added”, “the plate was covered and” for “the plate covered and”, “incubated for 10 min at” for “incubated for 5 min at”

[4] = molecular target: T4, Recombinant human integrin α5β1 (Homo sapiens, UniProt P05556+P08648); test: Solid Phase Receptor Assay (SPRA) for α5β1 function; details: plate-bound human fibronectin
T4 construct: purchased R&D Systems 3230-A5
T4 sequence (P08648 42-995 limits assumed): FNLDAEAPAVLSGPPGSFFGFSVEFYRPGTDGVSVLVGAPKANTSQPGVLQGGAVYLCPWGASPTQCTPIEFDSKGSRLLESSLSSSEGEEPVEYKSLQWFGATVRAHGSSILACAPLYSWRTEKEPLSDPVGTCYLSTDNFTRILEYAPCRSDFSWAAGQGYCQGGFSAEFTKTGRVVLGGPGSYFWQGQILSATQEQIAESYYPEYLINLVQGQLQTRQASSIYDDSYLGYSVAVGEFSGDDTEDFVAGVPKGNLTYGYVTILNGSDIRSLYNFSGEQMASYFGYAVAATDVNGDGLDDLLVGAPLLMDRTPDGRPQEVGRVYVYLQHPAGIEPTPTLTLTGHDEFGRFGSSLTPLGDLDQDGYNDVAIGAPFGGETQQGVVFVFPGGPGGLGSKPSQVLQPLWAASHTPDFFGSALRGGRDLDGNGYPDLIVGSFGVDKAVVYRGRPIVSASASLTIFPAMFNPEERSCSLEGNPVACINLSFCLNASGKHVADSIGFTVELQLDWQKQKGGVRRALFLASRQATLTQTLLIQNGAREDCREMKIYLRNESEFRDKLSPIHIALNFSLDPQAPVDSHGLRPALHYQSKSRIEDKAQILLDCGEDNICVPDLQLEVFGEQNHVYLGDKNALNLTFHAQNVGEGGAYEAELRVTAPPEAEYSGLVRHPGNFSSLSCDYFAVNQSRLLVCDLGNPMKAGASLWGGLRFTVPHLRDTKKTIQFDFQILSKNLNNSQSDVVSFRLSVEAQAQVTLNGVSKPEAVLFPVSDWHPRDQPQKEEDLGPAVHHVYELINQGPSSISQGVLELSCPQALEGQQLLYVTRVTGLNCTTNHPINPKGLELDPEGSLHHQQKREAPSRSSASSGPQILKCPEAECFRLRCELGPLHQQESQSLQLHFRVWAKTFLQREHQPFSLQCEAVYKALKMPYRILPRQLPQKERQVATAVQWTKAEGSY
T4 sequence (P05556 21-728 limits assumed): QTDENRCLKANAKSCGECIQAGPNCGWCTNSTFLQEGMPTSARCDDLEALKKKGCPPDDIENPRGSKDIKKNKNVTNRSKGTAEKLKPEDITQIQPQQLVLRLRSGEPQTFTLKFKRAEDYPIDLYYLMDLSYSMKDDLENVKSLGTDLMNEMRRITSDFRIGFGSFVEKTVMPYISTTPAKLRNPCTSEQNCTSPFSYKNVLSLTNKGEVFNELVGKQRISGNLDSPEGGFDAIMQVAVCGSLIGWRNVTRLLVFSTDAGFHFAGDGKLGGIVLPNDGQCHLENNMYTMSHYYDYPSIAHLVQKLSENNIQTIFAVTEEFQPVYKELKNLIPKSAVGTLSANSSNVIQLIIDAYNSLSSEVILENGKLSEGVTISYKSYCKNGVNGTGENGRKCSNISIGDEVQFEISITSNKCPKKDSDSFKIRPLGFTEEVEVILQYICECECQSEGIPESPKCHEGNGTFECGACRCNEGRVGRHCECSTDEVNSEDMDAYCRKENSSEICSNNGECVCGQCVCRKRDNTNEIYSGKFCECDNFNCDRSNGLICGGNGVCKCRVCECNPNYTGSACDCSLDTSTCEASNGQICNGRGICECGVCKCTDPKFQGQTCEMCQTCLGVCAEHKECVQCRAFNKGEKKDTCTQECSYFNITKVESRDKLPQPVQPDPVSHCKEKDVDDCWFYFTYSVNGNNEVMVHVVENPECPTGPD
Protocol: A. Solid Phase Receptor Assay (SPRA) for α5β1 Function
Wells were washed 3 times with 150 μL TBS+ and then 150 μL of blocking buffer (TBS+ with 1% bovine serum albumin, Sigma A7906) was added. The plate was incubated for 1 hr at 37° C. and then washed 3× with TBS+ buffer. […] Compounds were diluted to 20 μM and then 1 μL was added to each well of the plate according to a standard template with each sample repeated in triplicate. After incubation for two hours at room temperature, the plate was washed 3× with 150 μL of TBS+ buffer. To each well, 50 μL of biotinylated anti-α5 antibody (R&D Systems, BAF1864) at 0.5 μg/mL in TBS+/0.1% BSA were added and the plate covered and incubated for 1 hr at room temperature. After washing the plate 3× with 150 μL of TBS+ buffer, 50 μL of streptavidin-conjugated horseradish peroxidase (R&D Systems, DY998) diluted in TBS+ blocking buffer were added to the wells and the plate incubated for 20 min at room temperature. The plate was washed 3× with TBS+ buffer followed by 50 μL of room temperature TMB substrate (Sigma, T4444) added to each well in the dark and the plate incubated for 25 min at room temperature. 25 μL of 1.0 M phosphoric acid was added as a stop solution and the plates were read at 450 nm using a Spectramax plate reader.

Q: With `COc1c(C(C)(C)C)cc(C(CC(=O)O)Cc2csc(CCCc3ccc4c(n3)NCCC4)n2)cc1C(C)(C)C` (stereo not drawn) [Example 29, 3-(3,5-di-tert-butyl-4-methoxyphenyl)-4-(2-(3-(5,6,7,8-tetrahydro-1,8-naphthyridin-2-yl)propyl)thiazol-4-yl)butanoic acid] as the molecule, how does the pIC50 [1] read?
A: 6.10

Q: And the pIC50 [2]?
A: 7.06

Q: And the pIC50 [3]?
A: 6.35

Q: What about the pIC50 [4] of the same molecule?
A: 7.40

Q: Which results are given for `CC(C)(C)c1cc(C(CC(=O)O)Cc2csc(CCCc3ccc4c(n3)NCCC4)n2)cc(C2(C(F)F)CC2)c1` (stereo not drawn) [Example 30, 3-[3-tert-butyl-5-[1-(difluoromethyl)cyclopropyl]phenyl]-4-[2-[3-(5,6,7,8-tetrahydro-1,8-naphthyridin-2-yl)propyl]thiazol-4-yl]butanoic acid]?
A: pIC50 [1]: 6.59; pIC50 [2]: 7.60; pIC50 [3]: 6.57; pIC50 [4]: 7.52

Q: Which results are given for `CC(C)(C)c1cc(C(CC(=O)O)Cc2csc(CCCc3ccc4c(n3)NCCC4)n2)cc(C(C)(C)C(F)(F)F)c1` (stereo not drawn) [Example 31, 3-[3-tert-butyl-5-(2,2,2-trifluoro-1,1-dimethyl-ethyl)phenyl]-4-[2-[3-(5,6,7,8-tetrahydro-1,8-naphthyridin-2-yl)propyl]thiazol-4-yl]butanoic acid]?
A: pIC50 [1]: 5.82; pIC50 [2]: 7.12; pIC50 [3]: 5.77; pIC50 [4]: 7.18

Q: `COCC1(c2cc(C(CC(=O)O)Cc3csc(CCCc4ccc5c(n4)NCCC5)n3)cc(C(C)(C)C)c2)CCOCC1` (stereo not drawn) [Example 32, 3-[3-tert-butyl-5-[4-(methoxymethyl)tetrahydropyran-4-yl]phenyl]-4-[2-[3-(5,6,7,8-tetrahydro-1,8-naphthyridin-2-yl)propyl]thiazol-4-yl]butanoic acid] was tested. Which pIC50 [1] did it give?
A: 6.62

Q: What about the pIC50 [2] of the same molecule?
A: 7.85

Q: What about the pIC50 [3] of the same molecule?
A: 6.89

Q: And the pIC50 [4]?
A: 7.43

Q: Which results are given for `CC(C)(C)c1ccc(C#N)c(C(CC(=O)O)Cc2csc(CCCc3ccc4c(n3)NCCC4)n2)c1` (stereo not drawn) [Example 33, 3-(5-tert-butyl-2-cyano-phenyl)-4-[2-[3-(5,6,7,8-tetrahydro-1,8-naphthyridin-2-yl)propyl]thiazol-4-yl]butanoic acid]?
A: pIC50 [1]: 7.49; pIC50 [2]: 8.10; pIC50 [3]: 6.82; pIC50 [4]: 9.15

Q: `CC(C)(C)c1ccc(Br)c(C(CC(=O)O)Cc2csc(CCCc3ccc4c(n3)NCCC4)n2)c1` (stereo not drawn) [Example 34] was tested. Which pIC50 [1] did it give?
A: 6.44

Q: And the pIC50 [2]?
A: 6.85

Q: What about the pIC50 [3] of the same molecule?
A: 5.47

Q: What about the pIC50 [4] of the same molecule?
A: 7.16

Q: What does the source list for `COc1ccc(C(F)(F)F)cc1C(CC(=O)O)Cc1csc(CCCc2ccc3c(n2)NCCC3)n1` (stereo not drawn) [Example 35, 3-[2-methoxy-5-(trifluoromethyl)phenyl]-4-[2-[3-(5,6,7,8-tetrahydro-1,8-naphthyridin-2-yl)propyl]thiazol-4-yl]butanoic acid]?
A: pIC50 [1]: 7.16; pIC50 [2]: 7.29; pIC50 [3]: 6.70; pIC50 [4]: 7.06

Q: With `COc1ccc(C2(C(F)F)CC2)cc1C(CC(=O)O)Cc1csc(CCCc2ccc3c(n2)NCCC3)n1` (stereo not drawn) [Example 36, 3-(5-(1-(difluoromethyl)cyclopropyl)-2-methoxyphenyl)-4-(2-(3-(5,6,7,8-tetrahydro-1,8-naphthyridin-2-yl)propyl)thiazol-4-yl)butanoic acid] as the molecule, how does the pIC50 [1] read?
A: 6.82

Q: And the pIC50 [2]?
A: 7.54

Q: What about the pIC50 [3] of the same molecule?
A: 6.92

Q: And the pIC50 [4]?
A: 8.15

Q: Which results are given for `COc1ccc(C2=CCOCC2)cc1C(CC(=O)O)Cc1csc(CCCc2ccc3c(n2)NCCC3)n1` (stereo not drawn) [Example 37, 3-[5-(3,6-dihydro-2H-pyran-4-yl)-2-methoxy-phenyl]-4-[2-[3-(5,6,7,8-tetrahydro-1,8-naphthyridin-2-yl)propyl]thiazol-4-yl]butanoic acid]?
A: pIC50 [1]: 7.43; pIC50 [2]: 7.08; pIC50 [3]: 7.09; pIC50 [4]: 7.60

Q: `COc1ccc(C2=CCOCC2)cc1[C@H](CC(=O)O)Cc1csc(CCCc2ccc3c(n2)NCCC3)n1` [Example 37A, (S)-3-(5-(3,6-dihydro-2H-pyran-4-yl)-2-methoxyphenyl)-4-(2-(3-(5,6,7,8-tetrahydro-1,8-naphthyridin-2-yl)propyl)thiazol-4-yl)butanoic acid trifluoroacetate] was tested. Which pIC50 [1] did it give?
A: 7.51

Q: And the pIC50 [2]?
A: 7.37

Q: And the pIC50 [3]?
A: 7.51

Q: What about the pIC50 [4] of the same molecule?
A: 7.77

Q: `COc1ccc(C2=CCOCC2)cc1[C@@H](CC(=O)O)Cc1csc(CCCc2ccc3c(n2)NCCC3)n1` [Example 37B, (R)-3-(5-(3,6-dihydro-2H-pyran-4-yl)-2-methoxyphenyl)-4-(2-(3-(5,6,7,8-tetrahydro-1,8-naphthyridin-2-yl)propyl)thiazol-4-yl)butanoic acid trifluoroacetate] was tested. Which pIC50 [1] did it give?
A: 7.21

Q: And the pIC50 [2]?
A: 5.25

Q: And the pIC50 [3]?
A: 5.52

Q: And the pIC50 [4]?
A: 5.55

Q: Which results are given for `Cc1cc(C)n(-c2cccc(C(CC(=O)O)Cc3csc(CCc4ccc5c(n4)NCCC5)n3)c2)n1` (stereo not drawn) [Example 38, 3-(3-(3,5-dimethyl-1H-pyrazol-1-yl)phenyl)-4-(2-(2-(5,6,7,8-tetrahydro-1,8-naphthyridin-2-yl)ethyl)thiazol-4-yl)butanoic acid]?
A: pIC50 [1]: 9.15; pIC50 [2]: 5.57; pIC50 [3]: 6.62; pIC50 [4]: 6.38

Q: `CC(C)(C)c1cc(C(CC(=O)O)Cc2cc(OCCc3ccc4c(n3)NCCC4)n(CC(F)(F)F)n2)cc(C(C)(C)C)c1` (stereo not drawn) [Example 40, 3-(3,5-di-tert-butylphenyl)-4-(5-(2-(5,6,7,8-tetrahydro-1,8-naphthyridin-2-yl)ethoxy)-1-(2,2,2-trifluoroethyl)-1H-pyrazol-3-yl)butanoic acid trifluoroacetate] was tested. Which pIC50 [1] did it give?
A: 6.74

Q: And the pIC50 [2]?
A: 7.52

Q: What about the pIC50 [3] of the same molecule?
A: 6.10

Q: And the pIC50 [4]?
A: 8.22

Q: What does the source list for `Cn1nc(CC(CC(=O)O)c2cc(C(C)(C)C#N)cc(C(C)(C)C#N)c2)cc1OCCc1ccc2c(n1)NCCC2` (stereo not drawn) [Example 41, 3-(3,5-bis(2-cyanopropan-2-yl)phenyl)-4-(1-methyl-5-(2-(5,6,7,8-tetrahydro-1,8-naphthyridin-2-yl)ethoxy)-1H-pyrazol-3-yl)butanoic acid trifluoroacetate]?
A: pIC50 [1]: 8.30; pIC50 [2]: 9.00; pIC50 [3]: 7.43; pIC50 [4]: 9.52

Q: With `COc1ccc(C2=CCOCC2)cc1C(CC(=O)O)Cc1cc(OCCc2ccc3c(n2)NCCC3)n(C)n1` (stereo not drawn) [Example 42] as the molecule, how does the pIC50 [1] read?
A: 7.85

Q: What about the pIC50 [2] of the same molecule?
A: 7.39

Q: And the pIC50 [3]?
A: 7.77

Q: What about the pIC50 [4] of the same molecule?
A: 8.00
